Reference: patent US9440950B2, “Arginine methyltransferase inhibitors and uses thereof” (Epizyme, Inc., priority 2013, dated 2016)
pIC50: −log10 of the molar value.

What follows are molecules tested against T1, human PRMT3 (Homo sapiens, UniProt O60678) (assay: PRMT3 Biochemical Assay). Settings: peptide substrate, 3H-SAM Flashplate assay.
T1 construct: GST-tagged PRMT3; made in house; host or cells: E. coli BL21(DE3) Gold (pGEX-KG)
Description: S-adenosylmethionine (SAM), S-adenosylhomocysteine (SAH), bicine, Tween20, dimethylsulfoxide (DMSO), bovine skin gelatin (BSG), isopropyl-P3-D-thiogalactopyranoside (IPTG), and Tris(2-carboxyethyl)phosphine hydrochloride solution (TCEP) were purchased from Sigma-Aldrich at the highest level of purity possible. ^3H-SAM was purchase from American Radiolabeled Chemicals with a specific activity of 80 Ci/mmol. 384-well streptavidin Flashplates were purchased from PerkinElmer.
Peptide containing the classic RMT substrate motif was synthesized with an N-terminal linker-affinity tag motif and a C-terminal amide cap by 21st Century Biochemicals. The peptide was purified by high-performance liquid chromatography (HPLC) to greater than 95% purity and confirmed by liquid chromatography mass spectrometry (LC-MS). The sequence was Biot-Ahx-[…]-amide (SEQ ID NO.:11).
Full-length human PRMT3 (NM_005788.3) isoform 1 transcript clone was amplified from an HEK 293 cDNA library and subcloned into pGEX-KG (GE Life Sciences). The resulting construct encodes an N-terminal GST tag and a thrombin cleavage sequence ([…] […] […] […]) (SEQ ID NO.: 12) fused directly to Cys 2 of PRMT3.
E. coli (BL21(DE3) Gold, Stratagene) made competent by the CaCl2 method were transformed with the PRMT3 construct and ampicillin selection. Protein over-expression was accomplished by growing the PRMT3 expressing E. coli clone and inducing expression with 0.3 mM IPTG at 16° C. The culture was grown for 12 hours, harvested by centrifugation, and stored at −80° C. for purification.
GST-tagged PRMT3 eluted with 25-400 mM phosphate in buffer C. Protein was concentrated and buffer was exchanged to 20 mM Tris, 150 mM NaCl, 5% glycerol, 5 mM β-mercaptoethanol, pH7.8 by ultrafiltration. The purity of recovered protein was 70%.
General Procedure for PRMT3 Enzyme Assays on Peptide Substrates.
The assays were all performed in a buffer consisting of 20 mM Bicine (pH=7.6), 1 mM TCEP, 0.005% BSG, and 0.002% Tween 20, prepared on the day of use. Compounds in 100% DMSO (1 ul) were spotted into a polypropylene 384-well V-bottom plates (Greiner) using a Platemate Plus outfitted with a 384-channel head (Thermo Scientific). DMSO (1 ul) was added to Columns 11, 12, 23, 24, rows A-H for the maximum signal control and 1 ul of SAH, a known product and inhibitor of PRMT3, was added to columns 11, 12, 23, 24, rows I-P for the minimum signal control. A cocktail (40 ul) containing the PRMT3 enzyme was added by Multidrop Combi (Thermo-Fisher). The compounds were allowed to incubate with PRMT3 for 30 min at room temperature, then a cocktail (10 ul) containing SAM and peptide was added to initiate the reaction (final volume=51 ul). The final concentrations of the components were as follows: PRMT3 was 0.5 nM, ^3H-SAM was 100 nM, non-radiolabeled SAM was 1.8 uM, peptide was 330 nM, SAH in the minimum signal control wells was 1 mM, and the DMSO concentration was 2%. The assays were stopped by the addition of potassium chloride (10 ul) to a final concentration of 100 mM. 50 ul of the reaction in the 384-well polypropylene plate was then transferred to a 384-well Flashplate and the biotinylated peptides were allowed to bind to the streptavidin surface for at least 1 hour before being washed once with 0.1% Tween20 in a Biotek ELx405 plate washer. The plates were then read in a PerkinElmer TopCount plate reader to measure the quantity of ^3H-labeled peptide bound to the Flashplate surface, measured as disintegrations per minute (dpm) or alternatively, referred to as counts per minute (cpm).
Where dpm=disintegrations per minute, cmpd=signal in assay well, and min and max are the respective minimum and maximum signal controls.
Where top and bottom are the normally allowed to float, but may be fixed at 100 or 0 respectively in a 3-parameter fit. The Hill Coefficient normally allowed to float but may also be fixed at 1 in a 3-parameter fit. […]

T1 sequence (O60678 with tags, fused parts or gaps): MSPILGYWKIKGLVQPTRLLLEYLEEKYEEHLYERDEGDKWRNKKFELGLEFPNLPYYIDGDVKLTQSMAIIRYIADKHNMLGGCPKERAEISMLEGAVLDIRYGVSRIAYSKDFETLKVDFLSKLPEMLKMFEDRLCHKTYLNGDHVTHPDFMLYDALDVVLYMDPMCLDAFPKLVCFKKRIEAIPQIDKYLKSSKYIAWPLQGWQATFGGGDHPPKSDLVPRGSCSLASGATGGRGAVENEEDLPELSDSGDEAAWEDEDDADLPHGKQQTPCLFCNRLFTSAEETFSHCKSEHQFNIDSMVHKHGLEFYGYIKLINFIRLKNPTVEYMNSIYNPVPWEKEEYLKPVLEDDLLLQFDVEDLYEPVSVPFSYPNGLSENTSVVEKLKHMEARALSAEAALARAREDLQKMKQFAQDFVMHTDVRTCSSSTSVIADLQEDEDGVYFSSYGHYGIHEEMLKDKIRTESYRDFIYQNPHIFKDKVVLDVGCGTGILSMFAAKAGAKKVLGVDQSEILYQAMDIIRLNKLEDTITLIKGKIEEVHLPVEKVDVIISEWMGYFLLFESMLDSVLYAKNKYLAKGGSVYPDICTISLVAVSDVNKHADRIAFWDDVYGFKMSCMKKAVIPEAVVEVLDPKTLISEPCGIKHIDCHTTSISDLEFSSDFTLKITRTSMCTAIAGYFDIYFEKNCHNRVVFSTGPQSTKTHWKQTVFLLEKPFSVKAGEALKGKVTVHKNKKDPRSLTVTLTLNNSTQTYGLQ

Row | pIC50 | SMILES
1 | ≤ 5.00 | CNCCN(C)Cc1c[nH]nc1-c1cccnc1 [Compound 1]
2 | ≤ 5.00 | CNCCN(C)Cc1c[nH]nc1-c1ccc(O)nc1 [Compound 2]
3 | ≤ 5.00 | CNCCN(C)Cc1c[nH]nc1-c1ccc(N)nc1 [Compound 3]
4 | ≤ 5.00 | CN(CCN)Cc1c[nH]nc1-c1cncc(S(C)(=O)=O)c1 [Compound 4]
5 | ≤ 5.00 | COc1ccc(-c2n[nH]cc2CN(C)CCN)cn1 [Compound 5]
6 | ≤ 5.00 | Cc1cncc(-c2n[nH]cc2CN(C)CCN)c1 [Compound 6]
7 | 5.00 to 5.52 | CN(CCN)Cc1c[nH]nc1-c1cncc(F)c1 [Compound 7]
8 | ≤ 5.00 | CN(CCN)Cc1c[nH]nc1-c1cccnc1 [Compound 8]
9 | 5.52 to 6.00 | CN(CCN)Cc1c[nH]nc1-c1ccncc1 [Compound 9]
10 | 5.52 to 6.00 | Cc1cc(-c2n[nH]cc2CN(C)CCN)cnc1Cl [Compound 10]
11 | ≤ 5.00 | COc1cc(-c2n[nH]cc2CN(C)CCN)ccn1 [Compound 11]
12 | ≤ 5.00 | COc1cc(-c2n[nH]cc2CN(C)CCN)c(Cl)cn1 [Compound 12]
13 | 5.00 to 5.52 | CN(CCN)Cc1c[nH]nc1-c1ccc(C(F)(F)F)nc1 [Compound 13, N^1-methyl-N^1-((3-(6-(trifluoromethyl)pyridin-3-yl)-1H-pyrazol-4-yl)methyl)ethane-1,2-diamine]
14 | ≤ 5.00 | COc1ncc(Cl)cc1-c1n[nH]cc1CN(C)CCN [Compound 14]
15 | ≤ 5.00 | COc1ncccc1-c1n[nH]cc1CN(C)CCN [Compound 15]
16 | ≤ 5.00 | COc1ccncc1-c1n[nH]cc1CN(C)CCN [Compound 16]
17 | ≤ 5.00 | Cc1ccncc1-c1n[nH]cc1CN(C)CCN [Compound 17]
18 | ≤ 5.00 | CN(CCN)Cc1c[nH]nc1-c1cncc(C#N)c1 [Compound 18]
19 | 5.52 to 6.00 | CN(CCN)Cc1c[nH]nc1-c1cncc(Cl)c1 [Compound 19]
